Legend:
[1] = target: T1, hPIEZO1 (Homo sapiens, UniProt Q92508); assay: Intracellular Ca2+ measurement (Fura-2) in hPIEZO1-TREx cells; type: cell-based; details: 10 μM compound, hPIEZO1-TREx cells, paired with 10 μM Yoda1
T1 construct: expressed in transfected cells
Source text: HEK T‐REx™ 293 cells (Thermo Fisher Cat #R71007, RRID:CVCL_D585) that overexpress hPIEZO1 upon induction with tetracycline were generated as previously described (Rode et al., [2017]). PIEZO1‐GFP was used as a PCR template to clone hPIEZO1 coding sequence into pcDNA™4/TO between HindIII and EcoRI restriction sites. PIEZO1 was amplified as two fragments using the following primers: (HindIII‐PIEZO1‐Fw: […] and BamHI‐Int.PIEZO1‐Rv: […]) and (BamHI‐Int. PIEZO1‐Fw: […] and EcoRI‐PIEZO1‐Rv: […]). The two fragments were fused using BamHI restriction site, resulting in the full‐length PIEZO1 coding sequence with the c4182a silent mutation. HEK T‐REx™ 293 cells (Invitrogen) were transfected with pcDNA4/TO‐PIEZO1 using Lipofectamine 2000 (Thermo Fisher Scientific). Subsequently, cells were treated with 10 μg·ml^−1 blasticidin and 200 μg·ml^−1 zeocin (InvivoGen) to select stably transfected cells. Single‐cell clones were isolated and analysed individually. Expression was induced by treating the cells for 24 h with 10 ng·ml^−1 tetracycline and analysed by quantitative RT‐PCR and Western blot. These cells are referred to as hPIEZO1‐TREx.
(§1) HEK 293‐TREx cells and their stably transfected derivatives or transiently transfected HEK 293 or HeLa cells were seeded at a density of 7.5 × 10^4 cells per well into poly‐D‐lysine‐coated 96‐well plates. The plates were either commercially pre‐coated with poly‐D‐lysine (Greiner Bio‐One #655946) or (Greiner Bio‐One #655090) were coated in‐house with 35 μl of a 10 μg·ml^−1 poly‐D‐lysine (Bio‐Techne, Cultrex # 3439‐100‐01) in sterile deionised water per well for at least 24 h and rinsed three times with 100 μl per well sterile D‐PBS before addition of cells. HUVECs were seeded into tissue culture‐treated 96‐well plates (Greiner Bio‐One #655090) at a density of either 2.5 × 10^4 cells 24 h before experimentation or 1.25 × 10^4 cells 48 h before experimentation. Cells were incubated with 2 μM Fura‐2‐AM (Molecular Probes™) in the presence of 0.01% (wt./vol.) pluronic F127 (Sigma‐Aldrich #P2443) in standard bath solution (SBS) for 1 h at 37°C. Cells were washed with SBS for 30 min at room temperature. Alternatively, if inhibitors were being tested, these were added at this time, immediately following a wash in SBS. (−)‐Englerin A (Akbulut et al., [2015]) was used in SBS containing 0.01% pluronic acid as a dispersing agent to minimise aggregation of compound. Unless otherwise stated, the final concentration of DMSO was 0.2% (vol./vol). Working 2000× stock solutions of test compounds were freshly made in DMSO and diluted 1000‐fold in SBS during the 30 min SBS wash/inhibitor pre‐incubation period to obtain 2× solutions for injection. When testing the highest concentration of Yoda1, KC159 and KC289 (30 μM), the final DMSO concentration was 0.6% (vol./vol.). Measurements were made at room temperature on a 96‐well fluorescence plate reader (FlexStation 3, Molecular Devices, Sunnyvale, CA, USA) controlled by SoftMax Pro software v7.0.3. Recipient wells containing 80 μl SBS/0.2% (vol./vol.) DMSO vehicle or inhibitor compound received 80 μl 2× compound at an injection rate of 1 μl·s^−1, and the pipette introduced liquids from a height setting of 70 μl. No trituration was performed. For recordings using Fura‐2, the change in intracellular Ca was indicated as the ratio of Fura‐2 emission (510 nm) intensities at 340 and 380 nm excitation. Photomultipliers were set to medium sensitivity. SBS contained 130 mM NaCl, 5 mM KCl, 8 mM D‐glucose, 10 mM HEPES, 1.2 mM MgCl2 and 1.5 mM CaCl2, and the pH was adjusted to 7.4 with NaOH. The solution was filtered through a 0.2 μm bottle‐top filter prior to use and handled aseptically thereafter.
For intracellular Ca^2+ (Ca^2+i) measurements, technical intra‐experiment replicates were used to improve confidence in the data. Analysis of individual experiments was performed to obtain mean ± SEM values. […]

[2] = target: T2, mPIEZO1 (Mus musculus, UniProt E2JF22); assay: Intracellular Ca2+ measurement (Fura-2) in mPIEZO1-TREx cells; type: cell-based; details: for Peak ΔCa2+i (ΔF340/380), median fold difference compared to Yoda1: 10 μM compound, mPIEZO1-TREx cells, paired with 10 μM Yoda1; for Ca2+ response (agonist effect): 10 μM, cells overexpressing mPIEZO1, compared with Yoda1
T2 construct: expressed in transfected cells
T2 sequence (E2JF22 whole entry): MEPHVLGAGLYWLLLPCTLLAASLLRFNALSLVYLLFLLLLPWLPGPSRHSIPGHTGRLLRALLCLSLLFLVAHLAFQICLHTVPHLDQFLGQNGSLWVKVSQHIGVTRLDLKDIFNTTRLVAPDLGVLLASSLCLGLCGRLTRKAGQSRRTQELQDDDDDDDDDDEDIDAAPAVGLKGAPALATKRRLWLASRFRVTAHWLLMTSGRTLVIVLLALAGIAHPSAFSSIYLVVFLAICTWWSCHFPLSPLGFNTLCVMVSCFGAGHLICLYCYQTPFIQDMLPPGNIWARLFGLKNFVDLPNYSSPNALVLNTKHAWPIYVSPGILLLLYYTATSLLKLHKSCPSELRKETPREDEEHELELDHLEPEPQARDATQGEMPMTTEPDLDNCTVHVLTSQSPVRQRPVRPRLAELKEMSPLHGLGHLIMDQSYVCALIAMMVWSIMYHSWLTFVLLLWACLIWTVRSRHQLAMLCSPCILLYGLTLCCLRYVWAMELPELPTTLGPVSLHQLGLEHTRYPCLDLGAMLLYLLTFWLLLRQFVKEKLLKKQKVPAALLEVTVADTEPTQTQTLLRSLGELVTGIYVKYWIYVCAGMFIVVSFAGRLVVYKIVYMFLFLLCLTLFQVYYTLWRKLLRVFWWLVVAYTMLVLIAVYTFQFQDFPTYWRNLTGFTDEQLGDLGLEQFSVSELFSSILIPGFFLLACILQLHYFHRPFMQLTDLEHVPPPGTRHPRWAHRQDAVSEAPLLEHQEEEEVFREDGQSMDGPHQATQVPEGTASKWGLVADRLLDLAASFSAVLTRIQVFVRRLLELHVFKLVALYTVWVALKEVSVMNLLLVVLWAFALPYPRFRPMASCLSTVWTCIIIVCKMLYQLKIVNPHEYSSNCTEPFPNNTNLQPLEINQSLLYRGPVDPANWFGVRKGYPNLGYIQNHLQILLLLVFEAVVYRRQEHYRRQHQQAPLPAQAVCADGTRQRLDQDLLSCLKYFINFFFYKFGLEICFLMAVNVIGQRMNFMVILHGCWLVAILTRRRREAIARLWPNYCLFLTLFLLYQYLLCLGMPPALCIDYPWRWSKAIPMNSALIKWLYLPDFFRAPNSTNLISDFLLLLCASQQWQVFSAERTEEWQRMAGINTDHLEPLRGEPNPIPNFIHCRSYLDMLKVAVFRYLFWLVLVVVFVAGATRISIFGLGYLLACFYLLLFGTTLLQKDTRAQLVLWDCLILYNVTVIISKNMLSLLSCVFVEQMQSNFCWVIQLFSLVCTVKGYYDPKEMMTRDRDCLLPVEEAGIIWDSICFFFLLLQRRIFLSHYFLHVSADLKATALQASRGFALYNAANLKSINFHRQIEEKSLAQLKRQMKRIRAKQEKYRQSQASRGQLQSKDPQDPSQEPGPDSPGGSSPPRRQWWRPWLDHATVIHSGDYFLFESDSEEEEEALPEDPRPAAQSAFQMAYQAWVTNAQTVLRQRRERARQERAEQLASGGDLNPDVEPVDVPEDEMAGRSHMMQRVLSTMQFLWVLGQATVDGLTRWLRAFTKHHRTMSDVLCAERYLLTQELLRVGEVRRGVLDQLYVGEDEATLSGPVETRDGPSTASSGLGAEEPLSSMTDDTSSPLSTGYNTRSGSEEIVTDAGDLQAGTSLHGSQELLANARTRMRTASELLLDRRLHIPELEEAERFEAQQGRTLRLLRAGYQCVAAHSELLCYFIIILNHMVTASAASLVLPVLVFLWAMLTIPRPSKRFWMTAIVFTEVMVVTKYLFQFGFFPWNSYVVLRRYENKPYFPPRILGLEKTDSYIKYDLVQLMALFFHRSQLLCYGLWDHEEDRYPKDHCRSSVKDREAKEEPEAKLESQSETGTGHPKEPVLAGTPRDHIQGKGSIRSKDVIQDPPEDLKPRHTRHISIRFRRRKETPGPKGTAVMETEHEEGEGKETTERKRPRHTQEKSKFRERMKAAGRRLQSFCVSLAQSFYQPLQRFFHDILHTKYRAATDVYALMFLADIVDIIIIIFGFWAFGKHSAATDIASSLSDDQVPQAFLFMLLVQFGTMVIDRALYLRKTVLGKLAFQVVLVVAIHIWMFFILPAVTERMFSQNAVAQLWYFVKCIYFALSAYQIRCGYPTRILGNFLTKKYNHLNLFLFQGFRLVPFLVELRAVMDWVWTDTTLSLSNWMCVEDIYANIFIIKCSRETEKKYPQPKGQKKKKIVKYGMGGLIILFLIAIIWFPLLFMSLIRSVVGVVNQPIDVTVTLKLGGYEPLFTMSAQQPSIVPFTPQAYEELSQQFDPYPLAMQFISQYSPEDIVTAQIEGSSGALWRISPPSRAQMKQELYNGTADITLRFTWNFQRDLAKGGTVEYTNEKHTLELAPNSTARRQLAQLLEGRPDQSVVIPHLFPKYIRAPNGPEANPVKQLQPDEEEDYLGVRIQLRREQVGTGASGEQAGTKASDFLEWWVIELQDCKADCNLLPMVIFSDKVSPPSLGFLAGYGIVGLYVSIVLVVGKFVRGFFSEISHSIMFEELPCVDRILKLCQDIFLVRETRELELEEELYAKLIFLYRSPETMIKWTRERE
Source text: HEK T‐REx™ cells that constitutively overexpress murine PIEZO1 were generated as previously described (Blythe et al., [2019]). pcDNA3 mouse PIEZO1 (mPIEZO1) IRES green fluorescent protein (GFP), a gift from Ardem Patapoutian (Coste et al., [2010]), was used as a template to clone the mPIEZO1 coding sequence into pcDNA4/TO. Overlapping mPIEZO1 (forward primer 5′‐[…]‐3′ and reverse primer 5′‐[…]‐3′) and pcDNA4/TO (forward primer 5′‐[…]‐3′ and reverse primer 5′‐[…]‐3′) PCR products were assembled using Gibson Assembly (New England Biolabs). […] HEK T‐REx™ 293 cells were transfected with pcDNA4/TO‐mPIEZO1 using Lipofectamine 2000 (Invitrogen) and treated with 200 μg·ml^−1 zeocin to select stably transfected cells. Individual clones were isolated and analysed for expression using Yoda1 and intracellular Ca^2+ measurements. These cells are referred to as mPIEZO1‐TREx.
as §1
For intracellular Ca^2+ (Ca^2+i) measurements, technical intra‐experiment replicates were used to improve confidence in the data. Analysis of individual experiments was performed to obtain mean ± SEM values. For collated analysis of independent experiments, where normal distributions were not evidenced by Shapiro–Wilk normality tests, non‐parametric distributions were assumed, and therefore, median values were used. […]

[3] = target: T1, hPIEZO1; assay: Pre-treatment with analogue before Yoda1 stimulus, Ca2+ assay in hPIEZO1-TREx cells; type: cell-based; details: for 2 μM Yoda1-evoked peak ΔCa2+i (ΔF340/380), median fold difference compared to DMSO pretreatment: hPIEZO1-TREx, 10 μM compound 30 min pretreatment before 2 μM Yoda1; for Inhibition of the action of Yoda1: hPIEZO1 channels, 10 μM for 30 min prior to Yoda1
Procedure: as §1
In view of the effect of Dooku1 described above, we tested if there are inhibitory actions of the new Yoda1 analogues by pre‐treating cells at 10 μM for 30 min prior to adding 2 μM Yoda1 (Figures 9 and S9, SI 1). All except KC157 and KC161 inhibited the action of Yoda1 on hPIEZO1 channels (Figures 9a and S9, SI 1). […] KC159 and KC289 were agonists, and so they may inhibit the effect of Yoda1 simply by pre‐activating the channels. KC158, KC161 and KC162 are also agonists of mPIEZO1 channels (Figure 3). […] Only the 2‐benzoic acid analogue (KC157) lacks agonist or antagonist properties.

[4] = target: T2, mPIEZO1; assay: Pre-treatment with analogue before Yoda1 stimulus, Ca2+ assay in mPIEZO1-TREx cells; type: cell-based; details: mPIEZO1-TREx, 10 μM compound 30 min pretreatment before 0.5 μM Yoda1
[5] = system: mouse portal vein; assay: Wire myography, relaxation of phenylephrine pre-constricted vein
Procedure: Mice were anaesthetised with isoflurane (5% induction and 1.5% maintenance) in 95% O2 according to Schedule 1 procedure approved by the UK Home Office. The portal vein was quickly dissected and placed in Krebs solution. The Krebs PV solution consisted of 118 mM NaCl, 4.7 mM KCl, 2.5 mM CaCl2, 1.2 mM KH2PO4, 1.2 mM MgSO4·7H2O, 25.2 mM NaHCO3 and 11.1 mM glucose. By means of a dissecting microscope, adhering perivascular tissue was carefully removed and the vein was cut into 1 mm segments.
Vein segments were mounted onto two thin stainless steel wires in an isometric myograph (Multi Wire Myograph System 620M from Danish Myograph Technology [DMT]), for which the force transducer was calibrated once per month according to the manufacturer's instructions. The recording chamber was filled with gassed Krebs solution (95% O2/5% CO2, pH 7.4). The segments were then stretched to a normalised internal diameter according to the manufacturer's instructions. The mounted rings were kept in a 5 ml chamber containing Krebs solution at 37°C and continuously bubbled with a gas mixture of 95% O2 and 5% CO2 (pH 7.4). After an equilibration period of 60 min, the contractile function of the vessel was tested by replacing the Krebs solution by 60 mM K^+ solution. Following washout, the vein was contracted once with 10 μM phenylephrine and then Yoda1, KC159 or KC289 was applied with the concentrations of 0.1 to 10 μM. The NOS inhibitor, L‐NAME, (100 μM), was pre‐incubated for 20 min before the PIEZO1 modulator.
Because the anticipated effect of test compounds was to cause vessel relaxation, phenylephrine was applied to induce tension and the maximum value of this tension was defined as 0% relaxation (no relaxation). The value of tension immediately prior to application of phenylephrine was defined as 100% relaxation. Data are normalised to these values because, otherwise, the intrinsic variability in the absolute amount of tension induced by phenylephrine obscured exploration of the relaxant effect of compounds.
OriginPro 2020 was used for the analysis of myography data. Myography traces show readings taken every 0.5 or 1 s and were smoothed with the Savitzky–Golay filter set to 70 points. To compare the agonistic activity of Yoda1 analogues, basal vessel tension prior to compound injection was subtracted. Maximal tension in the presence of PE alone was used to define 0% relaxation. The tension value prior to PE application was defined as 100% relaxation. Following the addition of test compounds, tension readings were taken at the last time point of the treatments and expressed as percentage relaxation.

T1 sequence (Q92508 whole entry): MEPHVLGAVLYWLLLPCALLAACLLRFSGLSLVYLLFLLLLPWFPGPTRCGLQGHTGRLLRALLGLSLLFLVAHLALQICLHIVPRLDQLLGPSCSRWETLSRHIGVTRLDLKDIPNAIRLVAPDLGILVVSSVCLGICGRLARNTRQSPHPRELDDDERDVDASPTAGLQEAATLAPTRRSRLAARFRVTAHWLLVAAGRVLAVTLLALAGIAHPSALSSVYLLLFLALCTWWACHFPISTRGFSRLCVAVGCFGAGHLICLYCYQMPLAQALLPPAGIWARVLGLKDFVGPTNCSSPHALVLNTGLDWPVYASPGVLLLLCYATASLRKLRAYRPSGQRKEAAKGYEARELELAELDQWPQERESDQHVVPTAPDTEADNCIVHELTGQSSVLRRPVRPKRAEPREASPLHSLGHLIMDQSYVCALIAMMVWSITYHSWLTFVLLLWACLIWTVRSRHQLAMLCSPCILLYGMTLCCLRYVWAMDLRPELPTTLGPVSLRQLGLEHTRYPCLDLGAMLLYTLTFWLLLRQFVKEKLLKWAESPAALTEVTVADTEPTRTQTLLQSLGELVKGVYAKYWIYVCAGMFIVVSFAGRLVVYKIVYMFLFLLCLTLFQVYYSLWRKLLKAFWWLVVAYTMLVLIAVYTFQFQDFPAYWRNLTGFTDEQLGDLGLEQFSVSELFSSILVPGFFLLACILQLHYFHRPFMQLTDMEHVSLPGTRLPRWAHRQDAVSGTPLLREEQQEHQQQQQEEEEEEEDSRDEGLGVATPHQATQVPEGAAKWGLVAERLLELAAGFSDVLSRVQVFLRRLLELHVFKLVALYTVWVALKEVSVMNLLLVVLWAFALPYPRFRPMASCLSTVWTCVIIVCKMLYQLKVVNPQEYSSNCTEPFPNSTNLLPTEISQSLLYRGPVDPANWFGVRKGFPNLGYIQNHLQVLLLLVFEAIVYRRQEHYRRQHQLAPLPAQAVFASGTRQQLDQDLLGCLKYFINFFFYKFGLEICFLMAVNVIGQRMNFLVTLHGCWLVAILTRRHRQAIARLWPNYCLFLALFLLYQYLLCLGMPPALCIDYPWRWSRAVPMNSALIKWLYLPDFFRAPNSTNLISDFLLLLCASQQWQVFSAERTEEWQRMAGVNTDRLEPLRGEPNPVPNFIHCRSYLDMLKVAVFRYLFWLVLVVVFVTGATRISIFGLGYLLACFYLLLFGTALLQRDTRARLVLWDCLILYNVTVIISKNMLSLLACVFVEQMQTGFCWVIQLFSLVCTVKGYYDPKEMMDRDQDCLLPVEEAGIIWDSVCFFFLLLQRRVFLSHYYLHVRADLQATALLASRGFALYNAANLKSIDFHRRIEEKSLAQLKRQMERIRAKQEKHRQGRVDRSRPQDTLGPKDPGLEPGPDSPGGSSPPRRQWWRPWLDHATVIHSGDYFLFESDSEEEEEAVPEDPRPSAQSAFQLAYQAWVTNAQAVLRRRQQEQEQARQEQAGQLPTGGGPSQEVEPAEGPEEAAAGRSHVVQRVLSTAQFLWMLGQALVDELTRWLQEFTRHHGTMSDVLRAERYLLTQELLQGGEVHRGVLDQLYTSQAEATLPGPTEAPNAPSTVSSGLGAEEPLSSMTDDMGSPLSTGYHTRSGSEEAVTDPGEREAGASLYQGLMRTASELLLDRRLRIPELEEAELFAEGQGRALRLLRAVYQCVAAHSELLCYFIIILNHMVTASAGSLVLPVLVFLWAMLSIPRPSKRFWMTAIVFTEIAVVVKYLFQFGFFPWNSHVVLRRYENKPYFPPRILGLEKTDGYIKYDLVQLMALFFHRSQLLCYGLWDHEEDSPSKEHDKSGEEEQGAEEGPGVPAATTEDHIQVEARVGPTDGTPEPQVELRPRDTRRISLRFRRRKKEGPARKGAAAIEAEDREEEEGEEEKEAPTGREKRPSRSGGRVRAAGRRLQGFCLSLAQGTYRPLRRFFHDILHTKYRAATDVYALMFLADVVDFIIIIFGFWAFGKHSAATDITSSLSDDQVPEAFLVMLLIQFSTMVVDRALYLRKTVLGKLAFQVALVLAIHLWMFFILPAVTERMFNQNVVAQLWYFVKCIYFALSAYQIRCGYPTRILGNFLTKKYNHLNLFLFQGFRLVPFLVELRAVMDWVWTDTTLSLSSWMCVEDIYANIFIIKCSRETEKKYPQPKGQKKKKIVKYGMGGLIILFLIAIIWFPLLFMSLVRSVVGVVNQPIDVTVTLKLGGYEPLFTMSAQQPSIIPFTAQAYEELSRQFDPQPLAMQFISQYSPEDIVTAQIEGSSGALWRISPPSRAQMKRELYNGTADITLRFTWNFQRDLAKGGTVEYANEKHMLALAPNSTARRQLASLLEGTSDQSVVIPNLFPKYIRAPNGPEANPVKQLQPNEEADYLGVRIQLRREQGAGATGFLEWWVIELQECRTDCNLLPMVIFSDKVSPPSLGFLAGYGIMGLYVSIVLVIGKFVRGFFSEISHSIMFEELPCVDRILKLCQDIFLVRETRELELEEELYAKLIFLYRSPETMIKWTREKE

NC(=O)c1cccc(-c2nnc(SCc3c(Cl)cccc3Cl)s2)c1 [KC162]
Peak ΔCa2+i (ΔF340/380), median fold difference compared to Yoda1 [1]: −3.7 fold | Peak ΔCa2+i (ΔF340/380), median fold difference compared to Yoda1 [2]: −3.7 fold | Ca2+ response (agonist effect) [2]: agonist effects | 2 μM Yoda1-evoked peak ΔCa2+i (ΔF340/380), median fold difference compared to DMSO pretreatment [3]: −2.5 fold | Inhibition of the action of Yoda1 [3]: inhibit the Yoda1 response | 0.5 μM Yoda1-evoked peak ΔCa2+i (ΔF340/380), median fold difference compared to DMSO pretreatment [4]: −8.2 fold

O=C(O)c1cccc(-c2nnc(SCc3c(Cl)cccc3Cl)s2)c1 [KC158]
Peak ΔCa2+i (ΔF340/380), median fold difference compared to Yoda1 [1]: −11.7 fold | Peak ΔCa2+i (ΔF340/380), median fold difference compared to Yoda1 [2]: −2.0 fold | Ca2+ response (agonist effect) [2]: agonist effects | 2 μM Yoda1-evoked peak ΔCa2+i (ΔF340/380), median fold difference compared to DMSO pretreatment [3]: −3.8 fold | Inhibition of the action of Yoda1 [3]: inhibit the Yoda1 response | 0.5 μM Yoda1-evoked peak ΔCa2+i (ΔF340/380), median fold difference compared to DMSO pretreatment [4]: −4.9 fold

NC(=O)c1ccc(-c2nnc(SCc3c(Cl)cccc3Cl)s2)cc1 [KC161]
Peak ΔCa2+i (ΔF340/380), median fold difference compared to Yoda1 [1]: −23.6 fold | Peak ΔCa2+i (ΔF340/380), median fold difference compared to Yoda1 [2]: −3.8 fold | Ca2+ response (agonist effect) [2]: agonist effects | 0.5 μM Yoda1-evoked peak ΔCa2+i (ΔF340/380), median fold difference compared to DMSO pretreatment [4]: −6.5 fold

Clc1cccc(Cl)c1CSc1nnc(-c2ccc[nH]2)o1 [Dooku1, reference compound]
Effect on responses to phenylephrine ([5]; 10 μM Dooku1): consistently inhibited responses to phenylephrine | Effect of pre-incubation on relaxations evoked by PIEZO1 agonists ([5]; 10 μM Dooku1 pre-incubation, 30 min): reduces relaxations evoked by KC159 and KC289

From publication PMC10952572, “Improved PIEZO1 agonism through 4‐benzoic acid modification of Yoda1” (British Journal of Pharmacology, 2023)
